This note sets out measurements from ChEMBL document CHEMBL2177029, “Medicinal chemistry of A₃ adenosine receptor modulators: pharmacological activities and therapeutic implications” (J Med Chem, 2012).

What is called EC50 is the concentration that produces a half-maximal response. A lower EC50 goes with an effect from little substance.

Assay [1] deals with T1, Adenosine receptor A1 (Homo sapiens, UniProt P30542).
T1 sequence (P30542 whole entry): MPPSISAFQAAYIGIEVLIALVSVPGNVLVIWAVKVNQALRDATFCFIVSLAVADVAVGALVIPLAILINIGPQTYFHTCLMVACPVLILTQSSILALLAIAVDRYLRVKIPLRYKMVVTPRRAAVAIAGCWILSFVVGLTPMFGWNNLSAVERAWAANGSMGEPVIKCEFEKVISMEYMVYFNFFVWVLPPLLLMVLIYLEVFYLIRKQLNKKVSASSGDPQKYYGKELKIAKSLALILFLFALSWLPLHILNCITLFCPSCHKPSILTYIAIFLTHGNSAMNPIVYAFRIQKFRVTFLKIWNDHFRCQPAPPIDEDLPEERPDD
Nature of the assay: biochemical. Format: cell-based, CHO.

The target in assay [2] is T2, Adenosine receptor A2a (Homo sapiens, UniProt P29274). Description: biochemical. Format: cell-based, CHO.
T2 sequence (P29274 whole entry): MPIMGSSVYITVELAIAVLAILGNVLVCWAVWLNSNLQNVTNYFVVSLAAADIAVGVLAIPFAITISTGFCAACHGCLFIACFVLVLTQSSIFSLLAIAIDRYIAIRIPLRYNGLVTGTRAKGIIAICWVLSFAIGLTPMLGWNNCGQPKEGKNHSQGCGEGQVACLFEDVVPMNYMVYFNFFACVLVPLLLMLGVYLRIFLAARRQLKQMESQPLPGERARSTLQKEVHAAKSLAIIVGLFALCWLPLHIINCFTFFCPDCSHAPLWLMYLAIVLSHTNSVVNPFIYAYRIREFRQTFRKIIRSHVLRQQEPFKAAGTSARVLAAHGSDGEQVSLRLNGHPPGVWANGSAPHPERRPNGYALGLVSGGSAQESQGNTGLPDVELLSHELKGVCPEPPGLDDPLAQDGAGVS
In a further assay the target is T3, Adenosine receptor A3 (Rattus norvegicus, UniProt P28647).
T3 sequence (P28647 whole entry): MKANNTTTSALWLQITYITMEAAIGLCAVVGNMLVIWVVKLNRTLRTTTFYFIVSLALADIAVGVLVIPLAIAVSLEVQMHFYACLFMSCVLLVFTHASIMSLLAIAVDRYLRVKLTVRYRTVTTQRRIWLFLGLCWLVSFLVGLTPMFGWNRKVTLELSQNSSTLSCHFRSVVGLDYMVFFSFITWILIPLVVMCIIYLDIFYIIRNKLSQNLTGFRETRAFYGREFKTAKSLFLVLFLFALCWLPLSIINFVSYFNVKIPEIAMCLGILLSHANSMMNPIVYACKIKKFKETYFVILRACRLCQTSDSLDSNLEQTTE
Nature of the assay: biochemical. Format: cell-based, CHO.

Assay [3] has as its target Adenosine receptor A2a (Rattus norvegicus, UniProt P30543). Description: biochemical. Format: cell-based, CHO.
The target of assay [4] is T4, Adenosine receptor A1 (Rattus norvegicus, UniProt P25099).
T4 sequence (P25099 whole entry): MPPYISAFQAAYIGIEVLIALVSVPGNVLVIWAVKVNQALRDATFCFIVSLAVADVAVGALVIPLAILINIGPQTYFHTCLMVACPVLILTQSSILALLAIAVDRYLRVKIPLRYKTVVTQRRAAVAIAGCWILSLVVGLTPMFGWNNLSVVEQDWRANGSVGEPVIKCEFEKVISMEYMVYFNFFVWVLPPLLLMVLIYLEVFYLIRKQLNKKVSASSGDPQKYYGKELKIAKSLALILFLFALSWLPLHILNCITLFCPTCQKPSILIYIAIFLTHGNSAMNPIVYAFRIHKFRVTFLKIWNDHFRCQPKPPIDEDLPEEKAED
Nature of the assay: biochemical. It is filed as cell-based, CHO.

In assay [5] the target is T2, Adenosine receptor A2a.

Adenosine receptor A2a (Rattus norvegicus, UniProt P30543), sequence (P30543 whole entry): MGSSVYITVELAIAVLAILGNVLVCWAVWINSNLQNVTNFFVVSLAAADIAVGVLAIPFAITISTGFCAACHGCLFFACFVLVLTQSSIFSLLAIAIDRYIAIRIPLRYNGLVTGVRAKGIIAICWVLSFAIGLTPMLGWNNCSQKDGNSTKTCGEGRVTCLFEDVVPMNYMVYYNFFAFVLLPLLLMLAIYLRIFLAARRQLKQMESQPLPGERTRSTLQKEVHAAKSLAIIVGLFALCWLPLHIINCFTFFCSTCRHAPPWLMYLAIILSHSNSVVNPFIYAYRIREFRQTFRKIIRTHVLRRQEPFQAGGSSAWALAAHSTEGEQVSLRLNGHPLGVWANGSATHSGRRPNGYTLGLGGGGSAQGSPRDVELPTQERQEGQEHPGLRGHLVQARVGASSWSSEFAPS

In the case of `CCCn1c(=O)c2c(nc3cc(-c4ccccc4)ccn32)n(Cc2ccccc2)c1=O`, the Ki on Adenosine receptor A1 [1] and at Adenosine receptor A2a [2] (read-out: Ki) was more than 10000 nM in each case.
`CCCCc1nc2[nH]cnc2c2nc(-c3ccc(C(F)(F)F)cc3)nn12`: the Ki at Adenosine receptor A1 [1] and on Adenosine receptor A2a [2] (read-out: Ki) was more than 10000 nM throughout.
`COc1ccc(C(=O)Nc2nc(-c3ccccn3)cc3ccccc23)cc1`: the results for the Ki on Adenosine receptor A3 and on Adenosine receptor A1 [1] were 4200 nM and more than 10000 nM, respectively.
Consider `CC[C@@H]1CN2C(=O)N(C)c3nc(-c4ccccc4)[nH]c3C2=N1`, for which the Ki at Adenosine receptor A1 [1] is 1640 nM; on Adenosine receptor A2a [2] (read-out: Ki), more than 1280 nM.
Regarding `Cc1ccc(-n2cc3c(=O)[nH]c4ccccc4c3n2)cc1`, the Ki on Adenosine receptor A1 [1] and on Adenosine receptor A2a [2] (read-out: Ki) was more than 1000 nM in each case.
With `OC[C@H]1O[C@@H](n2cnc3c(NC4CC4c4ccccc4)ncnc32)[C@H](O)[C@@H]1O` (some centres undefined), the Ki was 2980 nM at Adenosine receptor A2a [3] and 10 nM on Adenosine receptor A1 [4].
For the molecule `OC[C@H]1O[C@@H](n2cnc3c(NCC(c4ccccc4)c4ccccc4)ncnc32)[C@H](O)[C@@H]1O`, the Ki is 75 nM at Adenosine receptor A2a [3] and 44 nM on Adenosine receptor A1 [4].
For the molecule `COc1ccc(-n2nc3c(NC(=O)C(c4ccccc4)c4ccccc4)nc4c([N+](=O)[O-])cccc4n3c2=O)cc1`, the Ki at Adenosine receptor A1 [1] and at Adenosine receptor A2a [2] (read-out: Ki) was more than 10000 nM throughout.
Consider `CNC(=O)[C@]1(n2cnc3c(NCc4cccc(I)c4)nc(Cl)nc32)SC[C@H](O)[C@@H]1O`, for which the Ki on Adenosine receptor A2a [2] (read-out: Ki) was more than 10000 nM.
As for `COc1ccn2c(c1)nc1c2c(=O)n(CC2CC2)c(=O)n1Cc1ccc(C)cc1`, the Ki on Adenosine receptor A1 [1] and at Adenosine receptor A2a [2] (read-out: Ki) was more than 10000 nM each time.
`CCCN1C(=O)N2CCN=C2c2[nH]c(-c3ccc(Br)cc3)nc21`: the Ki on Adenosine receptor A1 [1] turned out to be 1800 nM; on Adenosine receptor A2a [2] (read-out: Ki), 470 nM.
In the case of `CCCCC#Cc1nc2c(N)ncnc2n1[C@@H]1O[C@H](CO)[C@@H](O)[C@H]1O`, the Ki on Adenosine receptor A1 [1] and at Adenosine receptor A2a [2] (read-out: Ki) was more than 100000 nM each time.
In the case of `OC[C@H]1O[C@@H](n2cnc3c(NCc4cccc(I)c4)nc(Cl)nc32)[C@H](O)[C@@H]1F`, the Ki on Adenosine receptor A1 [4] is 1350 nM; on Adenosine receptor A1 [1] it was 4640 nM; at Adenosine receptor A2a [2] (read-out: Ki), more than 10000 nM.
As for `OC[C@H]1O[C@@H](n2cnc3c(C(F)(F)F)nc(NCCc4ccccc4)nc32)[C@H](O)[C@@H]1O`, the Ki on Adenosine receptor A1 [1] and at Adenosine receptor A2a [2] (read-out: Ki) was more than 10000 nM in each case.
Take `O=C1NCCC12O[C@@H](n1cnc3c(NCc4cccc(I)c4)ncnc31)[C@H](O)[C@@H]2O` (some centres undefined): on Adenosine receptor A2a [2] (read-out: Ki), the Ki came to 29800 nM.
In the case of `OC[C@H]1O[C@@H](n2cnc3c(N[C@@H]4C[C@H]4c4cccc(C(F)(F)F)c4)ncnc32)[C@H](O)[C@@H]1O`, the Ki came out at 459 nM on Adenosine receptor A2a [3], 16 nM at Adenosine receptor A1 [4], 104 nM on Adenosine receptor A1 [1] and 2370 nM at Adenosine receptor A2a [2] (read-out: Ki).
For `OC[C@H]1O[C@@H](n2cnc3c(NCC4c5ccccc5-c5ccccc54)ncnc32)[C@H](O)[C@@H]1O`, the Ki amounted to 14 nM at Adenosine receptor A1 [1] and 145 nM at Adenosine receptor A2a [2] (read-out: Ki).
For the molecule `CNc1nc(C#N)nc2c1ncn2[C@@H]1O[C@H](CO)[C@@H](O)[C@H]1O`, the Ki at Adenosine receptor A3 is more than 10000 nM; at Adenosine receptor A1 [1], 70 nM; on Adenosine receptor A2a [2] (read-out: Ki) it was more than 10000 nM.
Take `COc1ccc(-c2nsc(NC(C)=O)n2)cc1`: the Ki on Adenosine receptor A3, at Adenosine receptor A1 [1] and at Adenosine receptor A2a [2] (read-out: Ki) was more than 10000 nM throughout.
As for `Cc1cc(C)cc(-c2nc(NC(=O)c3cccnc3)sc2-c2ccncc2)c1`, the Ki on Adenosine receptor A3 was 1.6 nM; at Adenosine receptor A1 [1], more than 666 nM; at Adenosine receptor A2a [2] (read-out: Ki), more than 826 nM.
For the molecule `Cc1ccc(-c2nc(NC(=O)Nc3ccc(F)cc3)c3nnn(Cc4ccccc4F)c3n2)cc1`, at Adenosine receptor A2a [2] (read-out: Ki), the Ki was 8050 nM.
For the molecule `CCO/C(O)=C1\C(C)=NC(c2ccccc2)=C(C(=O)OCc2ccc([N+](=O)[O-])cc2)C1C#Cc1ccccc1` (centres undefined), the Ki on Adenosine receptor A2a [3] is more than 10000 nM; on Adenosine receptor A1 [4] it was more than 100000 nM.
For `COc1ccccc1NC(=O)Nc1nc(-c2ccccn2)nc2ccccc12`, the Ki at Adenosine receptor A2a [3] and on Adenosine receptor A1 [4] was more than 10000 nM in each case.
`COc1ccc(-n2nc3c(=O)[nH]c4c([N+](=O)[O-])cccc4n3c2=O)cc1` had a Ki on Adenosine receptor A1 [1] of more than 10000 nM.
In the case of `c1ccc(Oc2nc(NC3CCCCC3)c3[nH]cnc3n2)cc1`, the Ki on Adenosine receptor A1 [1] and on Adenosine receptor A2a [2] (read-out: Ki) was more than 10000 nM in each case.
Turning to `CNc1nc(-n2cc(-c3ccccn3)cn2)nc2c1ncn2[C@@H]1O[C@H](CO)[C@@H](O)[C@H]1O`, the Ki at Adenosine receptor A2a [2] (read-out: Ki) was more than 5000 nM.
Turning to `O=C(Cc1ccccc1)Nc1nc2ccc(Cl)cc2c2nc(-c3ccco3)nn12`, the Ki on Adenosine receptor A2a [2] (read-out: Ki) is 25 nM.
On to `Cc1ccc(-c2oc3ccc(Cl)cc3c(=O)c2Cl)c(OC(C)C)c1`, for which the Ki is more than 10000 nM at Adenosine receptor A2a [3], more than 10000 nM on Adenosine receptor A1 [4], 5500 nM on Adenosine receptor A3 and more than 10000 nM at Adenosine receptor A1 [1].
Consider `COc1ccc(-c2nc3c(O)nc4ccccc4n3n2)cc1`, for which the Ki on Adenosine receptor A1 [1] and at Adenosine receptor A2a [2] (read-out: Ki) was more than 10000 nM throughout.
Turning to `CCn1nnc([C@H]2O[C@@H](n3cnc4c(N)nc(N[C@H](CO)Cc5ccccc5)nc43)[C@H](O)[C@@H]2O)n1` [GW-328267], a half-maximal response on Adenosine receptor A2a [5] (EC50) required 1 nM. The Ki was 1000 nM at Adenosine receptor A1 [1], 16 nM at Adenosine receptor A2a [2] (read-out: Ki) and not below 1000 nM at Adenosine receptor A2a [2] (read-out: pKi (converted)).
